Test results published in patent publication US11167007B2, “FOXM1 modulators and uses thereof” (City of Hope, priority 2016, dated 2021).
Entries after “also recorded” stand apart in the source; their conditions may differ.

Biological target: T1, AR (Homo sapiens, UniProt P10275)
T1 sequence (P10275 1-920): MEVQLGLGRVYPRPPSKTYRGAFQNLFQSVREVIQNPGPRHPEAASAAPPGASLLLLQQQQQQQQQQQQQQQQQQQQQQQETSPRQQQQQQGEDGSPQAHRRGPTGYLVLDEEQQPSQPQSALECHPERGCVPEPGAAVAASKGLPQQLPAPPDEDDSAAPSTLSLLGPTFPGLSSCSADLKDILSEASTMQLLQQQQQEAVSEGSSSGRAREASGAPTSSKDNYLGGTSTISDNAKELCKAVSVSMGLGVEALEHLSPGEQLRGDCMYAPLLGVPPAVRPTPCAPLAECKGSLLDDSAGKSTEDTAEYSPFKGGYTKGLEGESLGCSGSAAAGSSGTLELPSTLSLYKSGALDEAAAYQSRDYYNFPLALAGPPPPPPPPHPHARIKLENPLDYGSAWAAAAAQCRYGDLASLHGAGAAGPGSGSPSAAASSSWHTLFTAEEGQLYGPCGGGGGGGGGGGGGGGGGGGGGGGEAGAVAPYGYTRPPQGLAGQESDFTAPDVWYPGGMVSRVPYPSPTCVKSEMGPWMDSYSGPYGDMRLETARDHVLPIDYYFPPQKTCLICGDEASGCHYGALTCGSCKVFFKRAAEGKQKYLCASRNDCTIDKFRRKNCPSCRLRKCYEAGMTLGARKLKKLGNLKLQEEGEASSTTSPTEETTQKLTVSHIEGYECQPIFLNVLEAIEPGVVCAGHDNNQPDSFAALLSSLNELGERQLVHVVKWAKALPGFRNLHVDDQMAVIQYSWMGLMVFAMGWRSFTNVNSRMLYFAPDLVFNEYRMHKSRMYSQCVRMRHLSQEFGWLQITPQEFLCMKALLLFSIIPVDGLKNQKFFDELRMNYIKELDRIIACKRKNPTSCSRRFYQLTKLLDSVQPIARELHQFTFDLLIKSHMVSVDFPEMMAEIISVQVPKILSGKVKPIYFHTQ
Assay: FRET-based AR conformation change reporter (CARY) in C2C12 muscle cells
Type: cell-based, murine
Parameters: Full length AR with cyan fluorescent protein (CFP) or yellow fluorescent protein (YFP) fused to either end (CARY); expressed in transfected cells
Conditions: FRET or luciferase
Protocol: Creation of stable C-AR-Y reporter cell lines. Cell lines listed above were either transfected with a plasmid or a virus containing the CFP-AR-YFP construct preceding an IRES and hygromycin resistance gene and clonal stable cell lines selected. Qualification criteria for the transfected cell lines were described by Jones et al, ACS Chem Biol, 3(7):412-8 (2008).
Screen for AR-modulators. Screening was performed essentially as described by Jones et al, ACS Chem Biol, 3(7):412-8 (2008). Briefly, C-AR-Y reporter GTI-7 were transferred to 96 well plates and treated with library compounds for 24 hours. […] The compounds to be tested were from the NCI/DTP Open Chemical Repository's Approved Oncology Drugs Set II, Diversity Set II and Mechanistic Set. […] After 24 hours, medium was aspirated and FRET was measured as previously described using a monochromator-based fluorescence plate reader (M1000, Tecan, Inc.). Jones et al, ACS Chem Biol, 3(7):412-8 (2008). […]
In order to identify potential cell-type selective AR modulators, the FRET-based assay of AR conformation change was utilized. […] This produces an accurate and quantifiable read-out of AR activity. […] Candidate hits were then further evaluated by dose response. […] In addition to FRET, AR transcriptional activity was also assessed in several cell lines by transfecting cells with a luciferase reporter driven by the human PSA promoter. […]

Structure (SMILES): C=C(NC(=O)C(=C)NC(=O)c1csc(C2=N[C@@H]3c4csc(n4)[C@H]4NC(=O)c5csc(n5)[C@H]([C@](C)(O)[C@@H](C)O)NC(=O)[C@H]5CSC(=N5)/C(=C/C)NC(=O)[C@H]([C@@H](C)O)NC(=O)c5csc(n5)[C@]3(CC2)NC(=O)[C@H](C)NC(=O)C(=C)NC(=O)C(=C)NC(=O)[C@H](C(C)C)N[C@@H]2C=Cc3c([C@H](C)O)cc(nc3[C@H]2O)C(=O)O[C@@H]4C)n1)C(N)=O [NSC285116, siomycin A]
- AR inhibitor (antagonist) activity in words: little to no activity; also recorded: not C2C12 muscle cells
